Experimental data reported in patent US12152020B2, “Pesticidally active azole-amide compounds” (SYNGENTA PARTICIPATIONS AG, priority 2018, dated 2024).

Legend:
Format in all cases: in vivo
[1] = system: Plutella xylostella (Diamond Back Moth); assay: Example B5: Plutella xylostella, artificial diet in 24-well plates, eggs; details: 192 h, application rate of 200 ppm, 8 days after infestation, in comparison to untreated samples, read-out: effect in at least one of the two categories (mortality or growth inhibition)
Method: Example B5: Plutella xylostella (Diamond Back Moth)
24-well microtiter plates with artificial diet were treated with aqueous test solutions prepared from 10′000 ppm DMSO stock solutions by pipetting. After drying, Plutella eggs were pipetted through a plastic stencil onto a gel blotting paper and the plate was closed with it. The samples were assessed for mortality and growth inhibition in comparison to untreated samples 8 days after infestation.
The following compounds gave an effect of at least 80% in at least one of the two categories (mortality or growth inhibition) at an application rate of 200 ppm: • P1, P2, P3, P4, P5, P7, P8, P9, P14, P15, P16, P17, P18, P21, P22, P23, P24, P25, P27, P28, P29, P30, P31, P32, P33, P34, P35, P36

[2] = system: Diabrotica balteata (Corn Root Worm); assay: Example B1: Diabrotica balteata, maize sprouts sprayed, L2 larvae; details: 96 h, application rate of 200 ppm, 4 days after infestation, in comparison to untreated samples, read-out: effect in at least one of the two categories (mortality or growth inhibition)
Method: Example B1: Diabrotica balteata (Corn Root Worm)
Maize sprouts placed onto an agar layer in 24-well microtiter plates were treated with aqueous test solutions prepared from 10′000 ppm DMSO stock solutions by spraying. After drying, the plates were infested with L2 larvae (6 to 10 per well). The samples were assessed for mortality and growth inhibition in comparison to untreated samples 4 days after infestation.
The following compounds gave an effect of at least 80% in at least one of the two categories (mortality or growth inhibition) at an application rate of 200 ppm: • P2, P3, P4, P5, P6, P7, P8, P14, P15, P16, P17, P18, P19, P20, P21, P22, P23, P24, P25, P27, P28, P29, P30, P31, P32, P33, P34, P35

[3] = system: Spodoptera littoralis (Egyptian Cotton Leaf Worm); assay: Example B9: Spodoptera littoralis, cotton leaf discs sprayed, L1 larvae; details: foliar, 72 h, application rate of 200 ppm, five L1 larvae, 3 days after infestation, in comparison to untreated samples, read-out: control in at least one of the categories (mortality, anti-feedant effect, or growth inhibition)
Method: Example B9: Spodoptera littoralis (Egyptian Cotton Leaf Worm)
Cotton leaf discs were placed onto agar in 24-well microtiter plates and sprayed with aqueous test solutions prepared from 10′000 ppm DMSO stock solutions. After drying the leaf discs were infested with five L1 larvae. The samples were assessed for mortality, anti-feeding effect, and growth inhibition in comparison to untreated samples 3 days after infestation. Control of Spodoptera littoralis by a test sample is given when at least one of the categories mortality, anti-feedant effect, and growth inhibition is higher than the untreated sample.

[4] = system: Chilo suppressalis (Striped Rice Stemborer); assay: Example B4: Chilo suppressalis, artificial diet, L2 larvae; details: 144 h, application rate of 200 ppm, 6 days after infestation, in comparison to untreated samples, read-out: control in at least one of the categories (mortality, anti-feedant effect, or growth inhibition)
Method: Example B4: Chilo suppressalis (Striped Rice Stemborer)
24-well microtiter plates with artificial diet were treated with aqueous test solutions prepared from 10′000 ppm DMSO stock solutions by pipetting. After drying, the plates were infested with L2 larvae (6-8 per well). The samples were assessed for mortality, anti-feeding effect, and growth inhibition in comparison to untreated samples 6 days after infestation. Control of Chilo suppressalis by a test sample is given when at least one of the categories mortality, anti-feedant effect, and growth inhibition is higher than the untreated sample.

[5] = system: Plutella xylostella (Diamondback Moth); assay: Example B14: Plutella xylostella, artificial diet in 96-well plates, eggs; details: 216 h, application rate of 500 ppm, 9 days after infestation
Method: Example B14: Plutella xylostella (Diamondback Moth)
96-well microtiter plates containing artificial diet were treated with aqueous test solutions, prepared from 10′000 ppm DMSO stock solutions, by a liquid handling robot. After drying, eggs (˜30 per well) were infested onto a netted lid which was suspended above the diet. The eggs hatch and L1 larvae move down to the diet. The samples were assessed for mortality 9 days after infestation.
The following compounds gave an effect of at least 80% average mortality at an application rate of 500 ppm: • P2, P3, P5, P6, P7, P9, P15, P16, P17, P18, P20, P22, P24, P25, P30, P31, P32, P33, P38.

[6] = system: Myzus persicae (Green Peach Aphid); assay: Example B8: Myzus persicae intrinsic activity, sucrose solution under Parafilm, 24-well; details: 120 h, test rate of 12 ppm, 5 days after infestation
Description: Example B8: Myzus persicae (Green Peach Aphid): Intrinsic Activity
Test compounds prepared from 10′000 ppm DMSO stock solutions were applied by pipette into 24-well microtiter plates and mixed with sucrose solution. The plates were closed with a stretched Parafilm. A plastic stencil with 24 holes was placed onto the plate and infested pea seedlings were placed directly on the Parafilm. The infested plate was closed with a gel blotting paper and another plastic stencil and then turned upside down. The samples were assessed for mortality 5 days after infestation.

[7] = system: Myzus persicae (Green Peach Aphid); assay: Example B13: Myzus persicae, sucrose solution under Parafilm, 96-well; details: 120 h, application rate of 50 ppm, 5 days after infestation
Description: Example B13: Myzus persicae (Green Peach Aphid)
Test compounds prepared from 10′000 ppm DMSO stock solutions were applied by a liquid handling robot into 96-well microtiter plates and mixed with a sucrose solution. Parafilm was stretched over the 96-well microtiter plate and a plastic stencil with 96 holes was placed onto the plate. Aphids were sieved into the wells directly onto the Parafilm. The infested plates were closed with a gel blotting card and a second plastic stencil and then turned upside down. The samples were assessed for mortality 5 days after infestation.

CC(=O)c1nc(C(C)NC(=O)c2cc(C(F)(F)F)cc(C(F)(F)F)c2)n(-c2ncccn2)n1 (stereo not drawn) [Compound P35, N-[1-(5-acetyl-2-pyrimidin-2-yl-1,2,4-triazol-3-yl)ethyl]-3,5-bis(trifluoromethyl) benzamide]
≥ 80%: percent effect (mortality or growth inhibition) at 200 ppm [1] | percent effect (mortality or growth inhibition) at 200 ppm [2] | percent control (mortality, anti-feedant effect or growth inhibition) at 200 ppm [3] | percent control (mortality, anti-feedant effect or growth inhibition) at 200 ppm [4]

CC(c1nc(C#N)nn1-c1ncccn1)N(C)C(=O)c1cc(C(F)(F)F)cc(C(F)(F)F)c1 (stereo not drawn) [Compound P9, N-[1-(5-cyano-2-pyrimidin-2-yl-1,2,4-triazol-3-yl)ethyl]-N-methyl-3,5-bis(trifluoromethyl) benzamide]
≥ 80%: percent effect (mortality or growth inhibition) at 200 ppm [1] | mortality at 500 ppm [5]

CC(c1nc(SC(F)(F)F)nn1-c1ncccn1)N(C)C(=O)c1cc(C(F)(F)F)cc(C(F)(F)F)c1 (stereo not drawn) [Compound P20, N-methyl-N-[1-[2-pyrimidin-2-yl-5-(trifluoromethylsulfanyl)-1,2,4-triazol-3-yl]ethyl]-3,5-bis(trifluoromethyl)benzamide]
≥ 80%: percent effect (mortality or growth inhibition) at 200 ppm [2] | mortality at 500 ppm [5] | percent control (mortality, anti-feedant effect or growth inhibition) at 200 ppm [3]

CC(NC(=O)c1cc(Br)cc(C(F)(F)F)c1)c1nc(Br)nn1-c1ncccn1 (stereo not drawn) [Compound P31, 3-bromo-N-[1-(5-bromo-2-pyrimidin-2-yl-1,2,4-triazol-3-yl)ethyl]-5-(trifluoromethyl) benzamide]
≥ 80%: percent effect (mortality or growth inhibition) at 200 ppm [1] | percent effect (mortality or growth inhibition) at 200 ppm [2] | mortality at 500 ppm [5] | percent control (mortality, anti-feedant effect or growth inhibition) at 200 ppm [3] | mortality at 12 ppm [6] | percent control (mortality, anti-feedant effect or growth inhibition) at 200 ppm [4]

CC(c1nc(Br)nn1-c1ccccn1)N(C)C(=O)c1cc(C(F)(F)F)cc(C(F)(F)F)c1 (stereo not drawn) [Compound P24, N-[1-[5-bromo-2-(2-pyridyl)-1,2,4-triazol-3-yl]ethyl]-N-methyl-3,5-bis(trifluoromethyl) benzamide]
≥ 80%: percent effect (mortality or growth inhibition) at 200 ppm [1] | percent effect (mortality or growth inhibition) at 200 ppm [2] | mortality at 500 ppm [5] | percent control (mortality, anti-feedant effect or growth inhibition) at 200 ppm [3]

C=C(F)c1nc(C(C)N(C)C(=O)c2cc(C(F)(F)F)cc(C(F)(F)F)c2)n(-c2ncccn2)n1 (stereo not drawn) [Compound P14, N-[1-[5-(1-fluorovinyl)-2-pyrimidin-2-yl-1,2,4-triazol-3-yl]ethyl]-N-methyl-3,5-bis(trifluoromethyl) benzamide]
≥ 80%: percent effect (mortality or growth inhibition) at 200 ppm [1] | percent effect (mortality or growth inhibition) at 200 ppm [2] | mortality at 50 ppm [7] | percent control (mortality, anti-feedant effect or growth inhibition) at 200 ppm [4]

CC#Cc1nc(C(C)N(C)C(=O)c2cc(C(F)(F)F)cc(C(F)(F)F)c2)n(-c2ncccn2)n1 (stereo not drawn) [Compound P8, N-methyl-N-[1(5-prop-1-ynyl-2-pyrimidin-2-yl-1,2,4-triazol-3-yl)ethyl]-3,5-bis(trifluoromethyl) benzamide]
≥ 80%: percent effect (mortality or growth inhibition) at 200 ppm [1] | percent effect (mortality or growth inhibition) at 200 ppm [2] | percent control (mortality, anti-feedant effect or growth inhibition) at 200 ppm [4]

CC(c1nc(S(=O)(=O)C(F)(F)F)nn1-c1ncccn1)N(C)C(=O)c1cc(C(F)(F)F)cc(C(F)(F)F)c1 (stereo not drawn) [Compound P19, N-methyl-N-[1-[2-pyrimidin-2-yl-5-(trifluoromethylsulfonyl)-1,2,4-triazol-3-yl]ethyl]-3,5-bis(trifluoromethyl)benzamide]
≥ 80%: percent effect (mortality or growth inhibition) at 200 ppm [2] | percent control (mortality, anti-feedant effect or growth inhibition) at 200 ppm [4]

CC(c1nc(-c2ccccc2)nn1-c1ncccn1)N(C)C(=O)c1cc(C(F)(F)F)cc(C(F)(F)F)c1 (stereo not drawn) [Compound P6, N-methyl-N-[1-(5-phenyl-2-pyrimidin-2-yl-1,2,4-triazol-3-yl)ethyl]-3,5-bis(trifluoromethyl)benzamide]
≥ 80%: percent effect (mortality or growth inhibition) at 200 ppm [2] | mortality at 500 ppm [5]

CC(NC(=O)c1cc(C(F)(F)F)cc(C(F)(F)F)c1)c1nc(Cl)nn1-c1ncccn1 (stereo not drawn) [Compound P34, N-[1-(5-chloro-2-pyrimidin-2-yl-1,2,4-triazol-3-yl)ethyl]-3,5-bis(trifluoromethyl) benzamide]
≥ 80%: percent effect (mortality or growth inhibition) at 200 ppm [1] | percent effect (mortality or growth inhibition) at 200 ppm [2] | percent control (mortality, anti-feedant effect or growth inhibition) at 200 ppm [3] | mortality at 12 ppm [6] | percent control (mortality, anti-feedant effect or growth inhibition) at 200 ppm [4]

CC(NC(=O)c1cc(C(F)(F)F)cc(C(F)(F)F)c1)c1nc(OCC(F)(F)F)nn1-c1ncccn1 (stereo not drawn) [Compound P27, N-[1-[2-pyrimidin-2-yl-5-(2,2,2-trifluoroethoxy)-1,2,4-triazol-3-yl]ethyl]-3,5-bis(trifluoromethyl) benzamide]
≥ 80%: percent effect (mortality or growth inhibition) at 200 ppm [1] | percent effect (mortality or growth inhibition) at 200 ppm [2] | percent control (mortality, anti-feedant effect or growth inhibition) at 200 ppm [3] | percent control (mortality, anti-feedant effect or growth inhibition) at 200 ppm [4]

C[C@H](NC(=O)c1cc(C(F)(F)F)cc(C(F)(F)F)c1)c1nc(OC(F)(F)F)nn1-c1ncccn1 [Compound P23, N-[(1S)-1-[2-pyrimidin-2-yl-5-(trifluoromethoxy)-1,2,4-triazol-3-yl]ethyl]-3,5-bis(trifluoromethyl)benzamide]
≥ 80%: percent effect (mortality or growth inhibition) at 200 ppm [1] | percent effect (mortality or growth inhibition) at 200 ppm [2] | percent control (mortality, anti-feedant effect or growth inhibition) at 200 ppm [3]
